# Legend:
# [1] = biological target: T1, BCL6 protein (Homo sapiens, UniProt P41182); test: Tumor lysate BCL6 protein levels in OCI-Ly10 xenograft (western blotting); format: in vivo, mice; parameters: from tissue; host or cells: subcutaneous xenograft tumors of OCI-Ly1, OCI-Ly7, SU-DHL-2 or OCI-Ly10 cells in mice; details: all dose levels, 16-hours post-last dose (FIG. 10C)
# Method: Mice bearing subcutaneous tumors were orally (po) administered vehicle or Compound A at 3, 10, or 30 mg/kg bi-daily for 28 days (bid×28) or 30 mg/kg daily for 28 days (qd×28). Dosing began with tumors at an average of 190 mm^3. […] FIG. 10C depicts tumor lysate BCL6 protein levels 16-hours post-last dose analyzed by western blotting. Individual tumor BCL6 levels are shown in a scatter plot, mean is represented by the bar, determined by densitometry, normalized to GAPDH loading controls, and shown as a percentage of vehicle. Percent BCL6 degradation (%) relative to vehicle is shown above each arm. Statistical analyses were performed using 2-way ANOVA: p<0.05 (*), p<0.0001 (****). Error bars represent standard error of the mean (±SEM).
# [2] = system: DLBCL-derived cell lines; test: Nine-day cell growth inhibition assay (CellTiter-Glo); format: cell-based; details: GCB lines OCI-Ly1, OCI-Ly7, SU-DHL-4, SU-DHL-6 and ABC lines SU-DHL-2, OCI-Ly10; 9 days; top dose 30 nM; concentration dependent
# Method: Antiproliferative effects of Compound A on DLBCL-derived cell lines were tested. Nine-day cell growth inhibition assays were conducted using GCB lines OCI-Ly1, OCI-Ly7, SU-DHL-4 and SU-DHL-6 (FIG. 3A), and ABC lines SU-DHL-2 and OCI-Ly10 (FIG. 3B) dosed with a 7-point 3-fold serial dilution of Compound A at a top dose of 30 nM. On days 3 and 6-7, samples were split to new 48-well plates for re-treatment, and 20% to a 96-well plate to measure cell viability using CellTiter-Glo (CTG). Split cells in the 48-well plates were retreated and cultured out to day 9, when 20% of each sample was analyzed by CTG. Dose response was plotted as a percentage of vehicle (DMSO) control (FIG. 3A and FIG. 3B). Graphs are representative of at least two independent proliferation assays per cell line.
# [3] = biological target: T1, BCL6 protein; test: Tumor lysate BCL6 protein levels in OCI-Ly7 xenograft (western blotting); format: in vivo, mice; parameters: from tissue; host or cells: subcutaneous xenograft tumors of OCI-Ly1, OCI-Ly7, SU-DHL-2 or OCI-Ly10 cells in mice; details: 16-hours post-last dose (FIG. 8C)
# Method: Mice bearing subcutaneous tumors were orally (po) administered vehicle or Compound A at 1, 3, 10, or 30 mg/kg daily for 13 days (qd×13). Dosing began with tumors at an average of 130 mm^3. […] FIG. 8C depicts tumor lysate BCL6 protein levels 16-hours post-last dose analyzed by western blotting. Individual tumor BCL6 levels are shown in a scatter plot, mean is represented by the bar, determined by densitometry, normalized to GAPDH loading controls, and shown as a percentage of vehicle. Percent BCL6 degradation (%) relative to vehicle is shown above each arm. Statistical analyses were performed using 2-way ANOVA: p<0.0001 (****). Error bars represent standard error of the mean (±SEM).
# [4] = biological target: T1, BCL6 protein; test: Tumor lysate BCL6 protein levels in OCI-Ly1 xenograft tumor tissue (western blotting, densitometry); format: in vivo, mice; parameters: from tissue; host or cells: subcutaneous xenograft tumors of OCI-Ly1, OCI-Ly7, SU-DHL-2 or OCI-Ly10 cells in mice
# Method: Tumor lysate BCL6 protein levels in OCI-Ly1 cell line xenograft tumor tissue was measured following a treatment time-course with Compound A. A single dose of Compound A was orally administered in a vehicle of 40% hydroxypropyl-b-cyclodextrin in pH 3.0 citrate buffer when tumors reached 200-400 mm^3. Tumors were harvested at the indicated timepoints. Tumor tissue lysates were analyzed using western immunoblotting procedures and densitometry. BCL6 levels are normalized to a GAPDH loading control and presented as a percentage (%) of the average of BCL6 levels in the vehicle control group. Percent BCL6 degradation (%) relative to vehicle is shown above each arm. Cells (1×10^7 cells in 50% matrigel+50% RMPI-1640 (phenol red-free)/100 μl/mouse) were implanted on the right flank subcutaneously.
# Mice bearing subcutaneous tumors were orally (po) administered vehicle or Compound A at 1, 3, or 10 mg/kg bi-daily for 23 days (bid×23). Dosing began with tumors at an average of 170 mm^3. […] FIG. 7C depicts tumor lysate BCL6 protein levels 16-hours post-last dose analyzed by western blotting. Individual tumor BCL6 levels are shown in a scatter plot, mean is represented by the bar, determined by densitometry, normalized to GAPDH loading controls, and shown as a percentage of vehicle. Percent BCL6 degradation (%) relative to vehicle is shown above each arm. Statistical analyses were performed using 2-way ANOVA: p<0.0001 (****). Error bars represent standard error of the mean (±SEM).
smiles,measurement,setting,value
"CNC(=O)COc1cc2cc(Nc3nc(N4CCC(O[C@H]5C[C@H](N6CCC(c7ccc8c(c7F)CN(C7CCC(=O)NC7=O)C8=O)CC6)C5)CC4)ncc3Cl)ccc2n(C(C)C)c1=O (stereo partly drawn) [Compound A, 2-({6-[(5-chloro-2-{4-[(1r,3r)-3-{4-[2-(2,6-dioxopiperidin-3-yl)-4-fluoro-1-oxo-2,3-dihydro-1H-isoindol-5-yl]piperidin-1-yl}cyclobutoxy]piperidin-1-yl}pyrimidin-4-yl)amino]-2-oxo-1-(propan-2-yl)-1,2-dihydroquinolin-3-yl}oxy)-N-methylacetamide]",Tumor lysate BCL6 protein level,[1],degraded BCL6 protein
same,DLBCL cell growth (antiproliferative effect),[2],significant decrease on DLBCL cells growth
same,Tumor lysate BCL6 protein level,[3],dose-dependent degradation of BCL6 protein
same,Tumor lysate BCL6 protein level,"[4]; bid×23, 16-hours post-last dose (FIG. 7C)",dose-dependent degradation of BCL6 protein
same,Time BCL6 protein was kept down,[4]; single oral dose (FIG. 5),up to 36 hours
same,Tumor lysate BCL6 protein level,"[4]; single oral dose, time-course (FIG. 5)",degraded BCL6 protein rapidly
